Source: article PMC10149936, “Cofilin activation in pancreatic acinar cells plays a pivotal convergent role for mediating CCK-stimulated enzyme secretion and growth” (Frontiers in Physiology, 2023)
Like-named read-outs stand apart in the source and are kept apart here.

Tests used:
[1] = tested on: actin-cofilin interaction in fibroblasts; settings: ref Shoji et al., 2012; cited from earlier work
[2] = tested on: epithelial cells; settings: ref Matsubayashi et al., 2004; cited from earlier work
[3] = tested on: p44/42 MAPK in pancreatic acini; assay: p44/42 MAPK activation (pT202/Y204 Western blot) in pancreatic acini; type: cell-based; settings: Rattus norvegicus, Cytochalasin D 10 µM or Paclitaxel 5 µM, 3 h, range
Description: Pancreatic acini preparations were obtained by collagenase digestion as previously described ([Bissonnette et al., 1984]; [Sato et al., 1989]; [Ramos-Alvarez and Jensen, 2018]). […] Isolated acini and CCK1-R/Panc-1 cells (M&M 2.2.1) were also preincubated with two SSH1 inhibitors, D3 (25 μM, 1 h) ([Li et al., 2015]) or SE (50 μM, 3 h for acini; 24 h for CCK1-R/Panc-1 cells) ([Lee et al., 2017]). After preincubation, 1 mL aliquots of dispersed acini were incubated at 37°C for 3–15 min with CCK-8 (0.3 nM or 100 nM), for 5–15 min with TPA (1 µM) or without stimulants, used as control. Cells were lysed in lysis buffer (50 mM Tris/HCl pH 7.5, 150 mM NaCl, 1% Triton X-100, 1% deoxycholate, 0.1% sodium azide, 1 mM EGTA, 0.4 mM EDTA, 0.2 mM sodium orthovanadate, 1 mM PMSF, and one protease inhibitor tablet per 10 mL). After sonication, lysates were centrifuged at 10,000×g for 15 min at 4°C and protein concentration was measured using the Bio-Rad protein assay reagent. Finally, cells were processed as below for Western blotting.
Western blotting and immunoprecipitation were performed as described previously ([Ramos-Alvarez and Jensen, 2018]). Whole cell lysates were subjected to SDS-PAGE using 4%–20% Tris–Glycine gels. […] The intensity of the protein bands was measured using GeneTools software from Syngene, which were assessed in the linear detection range. […]

[4] = tested on: cofilin-1 in epithelial cells; settings: micromolar concentrations, ref Zhang et al., 2018; cited from earlier work
Description: (Figures 11, 12) CCK-8 stimulates pancreatic growth in addition to being a physiological regulator of pancreatic enzyme secretion ([Jensen, 1994]; [Dufresne et al., 2006]) The activation of p44/42 MAPK by CCK-8 is an important signaling step in mediating its growth effects ([Dufresne et al., 2006]). Therefore, to study the possible role of cofilin in the activation of p44/42 MAPK in pancreatic acini, we examined the effect on cofilin activation of preincubation with two cofilin inhibitors (Cytochalasin D, Paclitaxel). (Figure 11) ([Shoji et al., 2012]; [Zhang et al., 2018]). The concentrations ...

[5] = tested on: cofilin (pS3) in CCK1-R/Panc-1 cells; assay: cofilin activation (pS3 cofilin Western blot) in CCK1-R/Panc-1 cells; type: cell-based, human; settings: CCK-8 0.3 and 100 nM, 5 min
Description: CCK1 receptor transfected Panc-1 (CCK1-R/Panc-1) cells ([Berna et al., 2009]) and AR42J cells, were cultured in DMEM supplemented with 10% FBS and 1% penicillin/streptomycin and in RPMI supplemented with 10% FBS and 1% penicillin/streptomycin, respectively; and split 1:10 weekly with trypsin/EDTA, after washing in PBS. Finally, cells were seeded in 6-well plate and serum starved overnight, until they were 80% confluent. Cells were incubated at 37°C in 5% CO2/95% air. AR42J cells were treated with 100 nM dexamethasone for 72°h, which stimulates their differentiation into exocrine cells ([Logsdon, 1986]).
Pancreatic acini preparations were obtained by collagenase digestion as previously described ([Bissonnette et al., 1984]; [Sato et al., 1989]; [Ramos-Alvarez and Jensen, 2018]). […] Isolated acini and CCK1-R/Panc-1 cells (M&M 2.2.1) were also preincubated with two SSH1 inhibitors, D3 (25 μM, 1 h) ([Li et al., 2015]) or SE (50 μM, 3 h for acini; 24 h for CCK1-R/Panc-1 cells) ([Lee et al., 2017]). […] After sonication, lysates were centrifuged at 10,000×g for 15 min at 4°C and protein concentration was measured using the Bio-Rad protein assay reagent. […]
Western blotting and immunoprecipitation were performed as described previously ([Ramos-Alvarez and Jensen, 2018]). […] The intensity of the protein bands was measured using GeneTools software from Syngene, which were assessed in the linear detection range. […]
FIGURE 3 Effect of two SSH1 inhibitors, D3 and SE (A–C), or SSH1 siRNA (D), on the ability of CCK-8 (0.3 and 100 nM) to activate LIMK and cofilin in pancreatic acini (A/B) and activate cofilin in CCK1-R/Panc-1 cells (C/D). […] Western blots were analyzed using anti-pS3 cofilin and anti-pT508 […], and the knockdown effect of SSH1 was confirmed by Western blots using SSH1 (C-term) antibody. Bands were visualized using chemiluminescence and quantified by densitometry. […] Results are expressed as % of basal stimulation of the control group. *, p < 0.05 compared to the control group; ∞, p < 0.05 compared to stimulants without inhibitors. […]

Question: Which “effect on interaction between actin and cofilin” value [1] does the source give for `C=C1[C@@H](C)[C@H]2[C@H](Cc3ccccc3)NC(=O)[C@]23[C@H](OC(C)=O)/C=C/[C@@](C)(O)C(=O)[C@@H](C)C/C=C/[C@H]3[C@@H]1O` [Cytochalasin D] here?
Answer: Its value is “inhibits the interaction between actin and cofilin”.

Question: And the “effect on cell migration” value [2]?
Answer: Its value is “completely blocked cell migration”.

Question: With `CC(=O)O[C@H]1C(=O)[C@@]2(C)[C@H]([C@H](OC(=O)c3ccccc3)[C@]3(O)C[C@H](OC(=O)[C@H](O)[C@@H](NC(=O)c4ccccc4)c4ccccc4)C(C)=C1C3(C)C)[C@]1(OC(C)=O)CO[C@@H]1C[C@@H]2O` [Paclitaxel] as the compound, how does the inhibition at 5 µM ([3]; CCK-8 0.3 and 100 nM 3 min, read-out: inhibition of CCK-8-mediated p42/44 phosphorylation) read?
Answer: The inhibition at 5 µM was 31 to 41%.

Question: And the inhibition at 5 µM ([3]; TPA 1 µM 5 min, read-out: inhibition of TPA-mediated p42/44 phosphorylation)?
Answer: Its inhibition at 5 µM is 27 to 30%.

Question: What about the “effect on cofilin-1 expression levels” value [4] of the same compound?
Answer: The value was “significantly suppressed cofilin-1 expression levels”.

Question: Which “effect on cofilin phosphorylation in CCK1-R/Panc-1 cells” value [5] does the source give for “COOH-terminal octapeptide of cholecystokinin [CCK-8]” here?
Answer: Its value is “caused rapidly dephosphorylation of cofilin”.
